Laboratory results as given in ChEMBL document CHEMBL5046233, “Nitroxoline and its derivatives are potent inhibitors of metallo-β-lactamases” (Eur J Med Chem, 2022).
≈ marks a conversion by molar mass, not a printed value. Calls of active or inactive are those of the source. No cut-off for these calls is given here.

Legend:
Escherichia coli [1] = assay: Antimicrobial activity against Escherichia coli T2351 expressing NDM-5 assessed as inhibition of bacterial growth by CLSI protocol based broth microdilution assay; format: functional
Klebsiella pneumoniae [2] = assay: Antimicrobial activity against Klebsiella pneumoniae T2216 expressing VIM-1 assessed as inhibition of bacterial growth by CLSI protocol based broth microdilution assay; format: functional
Klebsiella pneumoniae [3] = assay: Antimicrobial activity against Klebsiella pneumoniae T2301 expressing NDM-1 assessed as inhibition of bacterial growth at 0.5XMIC for 6 hrs by CLSI protocol based broth microdilution assay; format: functional, organism-based
Escherichia coli [4] = assay: Antimicrobial activity against Escherichia coli T2359 expressing VIM-1 assessed as inhibition of bacterial growth at 0.5XMIC for 6 hrs by CLSI protocol based broth microdilution assay; format: functional, organism-based
Pseudomonas aeruginosa [5] = assay: Antimicrobial activity against Pseudomonas aeruginosa T2357 expressing VIM-1 assessed as inhibition of bacterial growth by CLSI protocol based broth microdilution assay; format: functional
Escherichia coli [6] = assay: Antimicrobial activity against Escherichia coli T2544 expressing VIM-1 assessed as inhibition of bacterial growth by CLSI protocol based broth microdilution assay; format: functional
Pseudomonas aeruginosa [7] = assay: Antimicrobial activity against Pseudomonas aeruginosa T2325 expressing IMP-1 assessed as inhibition of bacterial growth by CLSI protocol based broth microdilution assay; format: functional
Pseudomonas aeruginosa [8] = assay: Antimicrobial activity against Pseudomonas aeruginosa T2283 expressing VIM-2 assessed as inhibition of bacterial growth by CLSI protocol based broth microdilution assay; format: functional
Klebsiella pneumoniae [9] = assay: Antimicrobial activity against Klebsiella pneumoniae clinical isolate T2301 expressing NDM-1 assessed as inhibition of bacterial growth by CLSI protocol based broth microdilution assay; format: functional
Pseudomonas aeruginosa [10] = assay: Antimicrobial activity against Pseudomonas aeruginosa T2282 expressing VIM-2 assessed as inhibition of bacterial growth by CLSI protocol based broth microdilution assay; format: functional
Escherichia coli [11] = assay: Antimicrobial activity against Escherichia coli T2433 expressing OXA-48 assessed as inhibition of bacterial growth by CLSI protocol based broth microdilution assay; format: functional
Pseudomonas aeruginosa [12] = assay: Antimicrobial activity against Pseudomonas aeruginosa T2217 expressing VIM-2 assessed as inhibition of bacterial growth by CLSI protocol based broth microdilution assay; format: functional
Pseudomonas aeruginosa [13] = assay: Antimicrobial activity against Pseudomonas aeruginosa T2229 expressing SPM-1 assessed as inhibition of bacterial growth by CLSI protocol based broth microdilution assay; format: functional
Enterobacter cloacae [14] = assay: Antimicrobial activity against Enterobacter cloacae T2353 expressing VIM-1 assessed as inhibition of bacterial growth by CLSI protocol based broth microdilution assay; format: functional
Klebsiella pneumoniae [15] = assay: Antimicrobial activity against Klebsiella pneumoniae T2432 expressing KPC-9 assessed as inhibition of bacterial growth by CLSI protocol based broth microdilution assay; format: functional
Escherichia coli [16] = assay: Antimicrobial activity against Escherichia coli clinical isolate T2228 expressing VIM-1 assessed as inhibition of bacterial growth by CLSI protocol based broth microdilution assay; format: functional
Klebsiella pneumoniae [17] = assay: Antimicrobial activity against Klebsiella pneumoniae T2301 expressing NDM-1 assessed as assessed as inhibition of bacterial growth at 0.5XMIC measured after 24 hrs by time-kill assay; format: functional, organism-based
Enterobacter cloacae [18] = assay: Antimicrobial activity against Enterobacter cloacae T2218 expressing GIM-1 assessed as inhibition of bacterial growth by CLSI protocol based broth microdilution assay; format: functional
Escherichia coli [19] = assay: Antimicrobial activity against Escherichia coli T2359 expressing NDM-1 assessed as inhibition of bacterial growth by CLSI protocol based broth microdilution assay; format: functional
Escherichia coli [20] = assay: Antimicrobial activity against Escherichia coli T2435 expressing KPC-2 assessed as inhibition of bacterial growth by CLSI protocol based broth microdilution assay; format: functional
Escherichia coli [21] = assay: Antimicrobial activity against Escherichia coli T2359 expressing VIM-1 assessed as assessed as inhibition of bacterial growth at 0.5XMIC measured after 24 hrs by time-kill assay; format: functional, organism-based
Serratia marcescens = assay: Antimicrobial activity against Serratia marcescens T2352 expressing NDM-1 assessed as inhibition of bacterial growth by CLSI protocol based broth microdilution assay; format: functional
Enterobacter cloacae [22] = assay: Antimicrobial activity against Enterobacter cloacae T2311 expressing NDM-1 assessed as inhibition of bacterial growth by CLSI protocol based broth microdilution assay; format: functional
Pseudomonas aeruginosa [23] = assay: Antimicrobial activity against Pseudomonas aeruginosa T1098 expressing IMP-7 assessed as inhibition of bacterial growth by CLSI protocol based broth microdilution assay; format: functional
Citrobacter freundii [24] = assay: Antimicrobial activity against Citrobacter freundii expressing T2431 KPC-3 assessed as inhibition of bacterial growth by CLSI protocol based broth microdilution assay; format: functional
Citrobacter freundii [25] = assay: Antimicrobial activity against Citrobacter freundii T2354 expressing VIM-4 assessed as inhibition of bacterial growth by CLSI protocol based broth microdilution assay; format: functional
Escherichia coli [26] = conditions: T2228
[27] = Cytotoxicity against human HUVEC cells assessed as metabolic activity measured after 24 hrs by cell-titer blue assay; format: toxicity, cell-based
Bacteria [28] = assay: Inhibition of recombinant IMP-1 (unknown origin) using fluorocillin as substrate at 3 uM incubated for 30 mins by fluorescence based assay
Bacteria [29] = assay: Inhibition of recombinant IMP-1 (unknown origin) using fluorocillin as substrate at 30 uM incubated for 30 mins by fluorescence based assay
Bacteria [30] = assay: Inhibition of recombinant VIM-1 (unknown origin) using fluorocillin as substrate at 10 uM incubated for 30 mins by fluorescence based assay
[31] = Inhibition of recombinant NDM-1 (unknown origin) using fluorocillin as substrate at 30 uM incubated for 30 mins by fluorescence based assay; conditions: Bacteria
[32] = Inhibition of recombinant NDM-1 (unknown origin) using fluorocillin as substrate at 10 uM incubated for 30 mins by fluorescence based assay; conditions: Bacteria
Bacteria [33] = assay: Inhibition of recombinant IMP-1 (unknown origin) using fluorocillin as substrate at 10 uM incubated for 30 mins by fluorescence based assay
[34] = Inhibition of recombinant NDM-1 (unknown origin) using fluorocillin as substrate at 3 uM incubated for 30 mins by fluorescence based assay; conditions: Bacteria
Bacteria [35] = assay: Inhibition of recombinant VIM-1 (unknown origin) using fluorocillin as substrate at 3 uM incubated for 30 mins by fluorescence based assay
Bacteria [36] = assay: Inhibition of recombinant VIM-1 (unknown origin) using fluorocillin as substrate at 30 uM incubated for 30 mins by fluorescence based assay

C[C@@H](O)[C@H]1C(=O)N2C(C(=O)O)=C(SCCNC=N)C[C@H]12 [IMIPENEM ANHYDROUS]
MIC (Escherichia coli [1]): 0.008 µg/mL (≈ 0.0267 µM)
MIC (Klebsiella pneumoniae [2]): 0.004 µg/mL (≈ 0.0134 µM)
inhibition (Klebsiella pneumoniae [3]): Active
inhibition (Escherichia coli [4]): Active
MIC (Pseudomonas aeruginosa [5]): 0.256 µg/mL (≈ 0.855 µM)
MIC (Escherichia coli [6]): 0.032 µg/mL (≈ 0.107 µM)
MIC (Pseudomonas aeruginosa [7]): 0.032 µg/mL (≈ 0.107 µM)
MIC (Pseudomonas aeruginosa [8]): 0.032 µg/mL (≈ 0.107 µM)
MIC (Klebsiella pneumoniae [9]): 0.016 µg/mL (≈ 0.0534 µM)
MIC (Pseudomonas aeruginosa [10]): 0.256 µg/mL (≈ 0.855 µM)
MIC (Escherichia coli [11]): 0.002 µg/mL (≈ 0.00668 µM)
MIC (Pseudomonas aeruginosa [12]): 0.256 µg/mL (≈ 0.855 µM)
MIC (Pseudomonas aeruginosa [13]): 0.512 µg/mL (≈ 1.71 µM)
MIC (Enterobacter cloacae [14]): 0.008 µg/mL (≈ 0.0267 µM)
MIC (Klebsiella pneumoniae [15]): 0.032 µg/mL (≈ 0.107 µM)
MIC (Escherichia coli [16]): 0.008 µg/mL (≈ 0.0267 µM)
inhibition (Klebsiella pneumoniae [17]): Active
MIC (Enterobacter cloacae [18]): 0.002 µg/mL (≈ 0.00668 µM)
MIC (Escherichia coli [19]): 0.128 µg/mL (≈ 0.428 µM)
MIC (Escherichia coli [20]): 0.004 µg/mL (≈ 0.0134 µM)
inhibition (Escherichia coli [21]): Active
MIC (Serratia marcescens): 0.256 µg/mL (≈ 0.855 µM)
MIC (Enterobacter cloacae [22]): 0.008 µg/mL (≈ 0.0267 µM)
MIC (Pseudomonas aeruginosa [23]): 0.128 µg/mL (≈ 0.428 µM)
MIC (Citrobacter freundii [24]): 0.008 µg/mL (≈ 0.0267 µM)
MIC (Citrobacter freundii [25]): 2 µg/mL (≈ 6.68 µM)

GENTAMICIN
MIC (Escherichia coli [26]): 0.002 µg/mL

O=[N+]([O-])c1ccc(O)c2ncccc12 [NITROXOLINE]
IC50 at 24 h [27]: 283 µg/mL (≈ 1490 µM)
inhibition (Bacteria [28]): < 20%
inhibition (Bacteria [29]): 95%
inhibition (Bacteria [30]): 31%
inhibition [31]: 99%
inhibition [32]: 81%
inhibition (Bacteria [33]): 42%
inhibition [34]: < 20%
inhibition (Bacteria [35]): < 20%
inhibition (Bacteria [36]): 75%

CO/N=C(\C(=O)N[C@@H]1C(=O)N2C(C(=O)O)=C(COC(N)=O)CS[C@H]12)c1ccco1 [CEFUROXIME]
MIC (Klebsiella pneumoniae [9]): 8.19 µg/mL (≈ 19.3 µM)
MIC (Escherichia coli [16]): 1.02 µg/mL (≈ 2.41 µM)
